Results published in patent US20250352524A1, “PREVENTION OF METASTATIC OUTGROWTH USING TEAD INHIBITORS” (Georgetown University, priority 2024, published 2025).
Entries after “also recorded” stand apart in the source; their conditions may differ.

System: DCIS:DCISA4 cells
Experiment: DCIS:DCIS-Δ4 mammary fat pad tumors in NOD/SCID mice, lung metastasis
Assay type: in vivo
Conditions: for growth rate or final volume of the primary tumors: tumors resected at 4 weeks; for outgrowth of cancer cells disseminated to the lungs: immunofluorescent staining of lungs
Procedure: Parental ductal carcinoma in situ (DCIS) was mixed with genetically-modified DCIS cells expressing AIB1-Δ4 (“DCIS-Δ4”) (see Sharif et al., 2021) at a 4:1 ratio, and the mix was injected into the mammary fat pad (MFP) of the mice. One group of mice received 30 mg/kg of the TEAD inhibitor VT107 (“iTEAD”) and the other group received vehicle treatment by daily oral gavage for 4 weeks. The primary tumors were removed by survival surgery. There was no difference observed in the growth rate or final volume of the primary tumors.
Lung tissues were subjected to RNA-Seq analysis, and Gene Set Enrichment Analysis (GSEA) was used to determine altered signaling pathways upon iTEAD treatment.
To further examine the effect of TEAD inhibition on the myeloid compartment of the lung, a human breast cancer cell line MCFDCIS (DCIS) that metastasizes to the lungs when a small population of cells (DCISA4) expresses an isoform of the transcription coactivator amplified in breast cancer 1 (Sharif et al., 2021), was used. DCIS:DCISA4 cells were injected into the mammary fat pad of NOD/SCID mice. Mice were treated daily with VT107. Tumors were surgically removed at week 4 and lungs were monitored for metastases for another 4 weeks without receiving additional treatment (FIG. 13, Panel B). Mouse body weights were measured weekly throughout the course of treatment (FIG. 13, Panel C). […] All mice in the vehicle treated group developed lung metastases as previously reported (Sharif et al., 2021). […] RNA was extracted from lung tissues to further examine the host stroma affected by VT107. RNA sequencing reads from the lungs were aligned to the mouse transcriptome to shed light on the host tissue changes in response to treatment in the presence of seeded cancer cells. […] These observations again show a shift in the inflammatory phenotypes in the microenvironment which could be responsible for the halt in the metastatic outgrowth of seeded cancer cells in the treated group.
Studies in mice were reviewed and approved by the Georgetown University Animal Care and Use Committee (GUACUC). Animals were randomized to receive vehicle control (DMSO) or VT107. Treatment was formulated in 5% DMSO, 10% solutol and 85% D5W; D5W. 5% glucose and administered daily by oral gavage. Five hundred thousand cells were injected into the mammary fat pad of age-matched 8 weeks old female NOD/SCID or C57/B16 mice purchased from Charles River or Jackson Laboratory, respectively. A hundred thousand 4T1 cells were injected into the tail veins of BALB/c mice purchased from Jackson Laboratory. Experimental timelines, treatment start times and durations are indicated in the figure diagrams and figure legends. Tissues collected were preserved in RNAlater (Thermofisher, #AM7020) or fixed in 10% formalin for histology analysis.
The total RNA from tissue or cell lines was extracted using RNeasy Mini Kit (Qiagen, #74104) according to the manufacturer's instructions. Total RNA integrity was assessed with the Agilent 2100 Bioanalyzer. The library preparation and next-generation sequencing (NGS) were performed at Novogene Corporation Inc. (Sacramento, CA, USA). At least triplicate samples per experimental condition were analyzed, raw sequence reads (150 bp paired end, […] average reads/sample) were aligned to the human or mouse transcriptome using STAR, and aligned reads translated to expression counts via featurecounts, followed by a standard edgeR (RRID:SCR_012802) pipeline to identify DEGs under specific conditions. Ingenuity pathway analysis (IPA, RRID:SCR_008653) was undertaken using a list of all differentially expressed genes with a cutoff of p-value less than 0.05 to identify signaling pathways and upstream regulators.

[1] = pathway analysis of lung RNA sequencing, VT107 vs vehicle

Substance: VT107
- development of lung metastases (30 mg/kg daily oral gavage for 4 weeks vs vehicle, H&E lung sections, listed as iTEAD): did not develop lung metastases; also recorded: significantly reduced
- growth rate or final volume of the primary tumors (30 mg/kg daily oral gavage for 4 weeks vs vehicle): similar
- growth rate or final volume of the primary tumors (30 mg/kg daily oral gavage for 4 weeks vs vehicle, listed as iTEAD): no difference; also recorded: no effect
- outgrowth of cancer cells disseminated to the lungs (30 mg/kg daily): failed to grow into overt metastases
- outgrowth of cancer cells disseminated to the lungs (30 mg/kg daily, listed as iTEAD): halted outgrowth; also recorded: unable to outgrow
- mice with no overt lung metastases (30 mg/kg daily, lungs monitored 4 weeks after tumor removal, all vehicle mice developed metastases): 4 out of 5
- Toll-like receptor 4 (TLR4) signaling pathway in lung tissue (GSEA) (RNA-Seq of lung tissue, iTEAD vs vehicle): drop and downregulation
- human actin relative to mouse actin in lung tissues by qPCR (VT107-treated mice): presence of DCIS cells
- myeloid cell activating pathways, acute phase response signaling and PD-L1 immunotherapy pathways in lungs [1]: upregulation
- signaling pathways implicated in pulmonary and hepatic fibrosis, cardiac hypertrophy and liver injury in lungs [1]: downregulated
